# Measured values published in patent US9877969B2, “Treatments with triazines” (CEVA SANTE ANIMALE, priority 2012, dated 2018).
# How the values were obtained:
# Format in all cases: in vivo
# Isospora suis = experiment: Anti-coccidial efficacy in piglets orally challenged with Isospora suis (Example B); settings: single i.m. 20 or 40 mg/kg (G1, G2)
# Method: (§1) • Group 1: 10 piglets 2 days old were injected with one intramuscular dose of toltrazuril C629 (dose=20 mg toltrazuril per kg body weight equivalent to 0.4 mL/Kg body weight) on SD0. • Group 2: 11 piglets 2 days old were injected with one intramuscular dose of toltrazuril C629 (dose=40 mg toltrazuril per kg body weight equivalent to 0.8 mL/kg body weight) on SD0. • Group 3: 9 piglets 2 days old were dosed orally with the standard commercial formulation of toltrazuril, Cevazuril® (dose=20 mg toltrazuril per kg body weight equivalent to 0.4 mL/Kg body weight) on SD0. • Group 4: 8 piglets, left untreated.
# (§2) All four (4) groups of piglets were injected on SD0 with iron injection (Gleptosil®) at the dose rate of 1 ml per piglet. 3 days after treatment (on SD3), the piglets were orally challenged with a characterized strain of Isospora suis.
# (§3) The following study parameters were used to assess the efficacy of the test products: • Local and general tolerance (for Groups 1 and 2); • Occurrence of diarrhea and fecal consistency; • Oocyst excretion; • Body weight development; and • Serum concentrations of toltrazuril and its metabolite toltrazuril sulfone (e.g., ponazuril) in Groups 1, 2 and 3. Results
# [1] = Local and general tolerance of a single intramuscular injection in 3-day-old piglets (Example A)
# Method: (§4) This target animal safety and efficacy study was conducted on a farm with a known history of cocciodiosis. The main objective was to study the safety and efficacy of intramuscular injection of toltrazuril in comparison to the standard oral application. • Group 1: 8 piglets 3 days old were injected by a single intramuscular dose of toltrazuril (dose=20 mg toltrazuril per kg body weight equivalent to 0.4 mL/kg body weight) on SD0. • Group 2: 8 piglets 3 days old were injected by one intramuscular dose of toltrazuril (60 mg toltrazuril per kg body weight equivalent to 1.2 mL/Kg body weight) on SD0. • Group 3: 8 piglets 3 days old were dosed orally with the standard commercial formulation of toltrazuril, Cevazuril® (dose=20 mg toltrazuril per kg body weight equivalent to 0.4 mL/Kg body weight) on SD0. • Group 4: 12 piglets 3 days old, left untreated.
# (§5) All four (4) groups of piglets were injected on SD0 with iron (Gleptosil®) at the dose rate of 1 ml per piglet.
# (§6) The local and general tolerances, as well as body weight development, were assessed.
# [2] = Body weight development of piglets on a farm with a known history of coccidiosis (Example A)
# Method: as §4, §5, §6
# [3] = Pharmacokinetics: serum concentrations of toltrazuril and toltrazuril sulfone in 2-day-old piglets (Example B); settings: after intramuscular application
# Method: as §1, §2, §3
# [4] = Local and general tolerance in 2-day-old piglets (Example B); settings: all tested doses (i.m. 20 and 40 mg/kg)
# Method: as §1, §2, §3
smiles,measurement,setting,value
Cc1cc(-n2c(=O)[nH]c(=O)n(C)c2=O)ccc1Oc1ccc(SC(F)(F)F)cc1 [toltrazuril],Fecal consistency,Isospora suis; Isospora suis challenge on SD3,unchanged
same,Oocyst excretion,Isospora suis; Isospora suis challenge on SD3,No oocyst excretion
same,Weight gain versus control animals (G4),Isospora suis; infected animals,gained more weight than the control animals
same,Time to disappearance of local reaction (edema) post injection,[1]; intramuscular 1.2 mL/Kg body weight,less than 1 week
same,Local reaction,[1]; intramuscular 1.2 mL/Kg body weight (60 mg/kg),limited local reaction (edema) in some piglets
same,General tolerance,"[1]; single intramuscular doses up to 60 mg/kg, 3-day-old piglets",well tolerated
same,Pain at injection,"[1]; single intramuscular injection, 3-day-old piglets",No pain
same,Weight gain versus control non-treated piglets,"[2]; intramuscularly treated piglets, at SD0+29 days",+2 kg
same,Body weight development,[2]; treated piglets,normal
same,Absorption,[3],well absorbed
same,Tolerance,[4],well tolerated
